Reference: PMC1762332, “Catalases Are NAD(P)H-Dependent Tellurite Reductases” (PLoS ONE, 2006)

Assays:
[1] = molecular target: T1, E. coli katG (HPI catalase) (Escherichia coli, UniProt P13029); experiment: in-gel tellurite reductase activity after native PAGE of E. coli extract; absent in katG mutant; format: biochemical; details: 1 mM K2TeO3, 1 mM NADH, 1 mM 2-mercaptoethanol, potassium phosphate pH 7, 37 °C, 12 h
T1 construct: native enzyme in extract of E. coli (Top10 with pBAD vector), resolved on native gel; tetramer; band absent in katG mutant
T1 sequence (P13029 whole entry): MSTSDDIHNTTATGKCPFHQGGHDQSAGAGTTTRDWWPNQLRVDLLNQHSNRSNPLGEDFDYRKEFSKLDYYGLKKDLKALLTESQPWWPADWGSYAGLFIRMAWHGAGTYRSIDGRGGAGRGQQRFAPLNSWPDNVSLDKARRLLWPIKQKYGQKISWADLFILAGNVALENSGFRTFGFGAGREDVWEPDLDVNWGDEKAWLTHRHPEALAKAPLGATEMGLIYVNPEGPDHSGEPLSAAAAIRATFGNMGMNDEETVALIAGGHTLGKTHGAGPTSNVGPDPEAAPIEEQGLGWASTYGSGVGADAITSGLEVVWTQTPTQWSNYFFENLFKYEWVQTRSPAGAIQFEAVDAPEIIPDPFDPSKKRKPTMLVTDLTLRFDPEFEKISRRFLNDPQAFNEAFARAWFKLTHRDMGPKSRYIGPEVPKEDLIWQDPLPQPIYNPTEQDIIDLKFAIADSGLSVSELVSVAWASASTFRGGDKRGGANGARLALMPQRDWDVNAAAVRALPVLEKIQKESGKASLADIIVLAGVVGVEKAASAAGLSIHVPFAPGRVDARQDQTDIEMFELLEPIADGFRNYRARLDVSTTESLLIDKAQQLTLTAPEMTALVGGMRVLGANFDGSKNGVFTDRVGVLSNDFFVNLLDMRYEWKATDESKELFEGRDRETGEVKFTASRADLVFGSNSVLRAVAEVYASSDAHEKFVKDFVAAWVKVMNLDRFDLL

[2] = molecular target: T2, S. epidermidis CH katA (catalase) (Staphylococcus epidermidis, UniProt Q2PUJ9); experiment: in-gel tellurite reductase activity after native PAGE of recombinant E. coli extract; format: biochemical; details: 1 mM K2TeO3, 1 mM NADH, 1 mM 2-mercaptoethanol, potassium phosphate pH 7, 37 °C, 12 h
T2 construct: katA coding region (1,515 bp) in pBAD (plasmid pCAT), expressed in E. coli Top10, extract; about 60 kDa subunit; homolog of SE1016 of ATCC12228
T2 sequence (Q2PUJ9 3-504): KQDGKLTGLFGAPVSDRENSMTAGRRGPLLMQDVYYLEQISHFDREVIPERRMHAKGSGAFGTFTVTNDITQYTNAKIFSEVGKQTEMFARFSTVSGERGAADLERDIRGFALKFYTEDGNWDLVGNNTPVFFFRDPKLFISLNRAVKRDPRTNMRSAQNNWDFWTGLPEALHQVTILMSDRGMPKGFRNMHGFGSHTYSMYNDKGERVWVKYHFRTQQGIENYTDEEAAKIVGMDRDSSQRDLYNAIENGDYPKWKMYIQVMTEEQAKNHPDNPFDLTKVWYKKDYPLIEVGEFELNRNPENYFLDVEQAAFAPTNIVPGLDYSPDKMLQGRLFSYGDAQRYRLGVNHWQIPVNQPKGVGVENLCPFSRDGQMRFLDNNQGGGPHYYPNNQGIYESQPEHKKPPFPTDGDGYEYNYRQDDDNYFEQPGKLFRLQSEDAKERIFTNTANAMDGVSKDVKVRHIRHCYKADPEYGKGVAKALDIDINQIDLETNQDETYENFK

O=[Te](O)O [tellurite]
in-gel tellurite reductase activity after native PAGE of E. coli extract; absent [1]: a barely detectable tellurite reductase activity | in-gel tellurite reductase activity after native PAGE of recombinant E. coli ext [2]: tellurite reductase activities of catalase are expressed at more than-four fold higher levels
